Tests used:
ACE = target: T1, ACE (Rattus norvegicus, UniProt P47820); experiment: ACE inhibition: hydrolysis of the ippuril-glycil-glycine artificial substrate by the ACE contained in rat serum; type: biochemical
T1 construct: by the ACE contained in the rat serum; from tissue; host or cells: rat serum
T1 sequence (P47820 36-1238 limits assumed): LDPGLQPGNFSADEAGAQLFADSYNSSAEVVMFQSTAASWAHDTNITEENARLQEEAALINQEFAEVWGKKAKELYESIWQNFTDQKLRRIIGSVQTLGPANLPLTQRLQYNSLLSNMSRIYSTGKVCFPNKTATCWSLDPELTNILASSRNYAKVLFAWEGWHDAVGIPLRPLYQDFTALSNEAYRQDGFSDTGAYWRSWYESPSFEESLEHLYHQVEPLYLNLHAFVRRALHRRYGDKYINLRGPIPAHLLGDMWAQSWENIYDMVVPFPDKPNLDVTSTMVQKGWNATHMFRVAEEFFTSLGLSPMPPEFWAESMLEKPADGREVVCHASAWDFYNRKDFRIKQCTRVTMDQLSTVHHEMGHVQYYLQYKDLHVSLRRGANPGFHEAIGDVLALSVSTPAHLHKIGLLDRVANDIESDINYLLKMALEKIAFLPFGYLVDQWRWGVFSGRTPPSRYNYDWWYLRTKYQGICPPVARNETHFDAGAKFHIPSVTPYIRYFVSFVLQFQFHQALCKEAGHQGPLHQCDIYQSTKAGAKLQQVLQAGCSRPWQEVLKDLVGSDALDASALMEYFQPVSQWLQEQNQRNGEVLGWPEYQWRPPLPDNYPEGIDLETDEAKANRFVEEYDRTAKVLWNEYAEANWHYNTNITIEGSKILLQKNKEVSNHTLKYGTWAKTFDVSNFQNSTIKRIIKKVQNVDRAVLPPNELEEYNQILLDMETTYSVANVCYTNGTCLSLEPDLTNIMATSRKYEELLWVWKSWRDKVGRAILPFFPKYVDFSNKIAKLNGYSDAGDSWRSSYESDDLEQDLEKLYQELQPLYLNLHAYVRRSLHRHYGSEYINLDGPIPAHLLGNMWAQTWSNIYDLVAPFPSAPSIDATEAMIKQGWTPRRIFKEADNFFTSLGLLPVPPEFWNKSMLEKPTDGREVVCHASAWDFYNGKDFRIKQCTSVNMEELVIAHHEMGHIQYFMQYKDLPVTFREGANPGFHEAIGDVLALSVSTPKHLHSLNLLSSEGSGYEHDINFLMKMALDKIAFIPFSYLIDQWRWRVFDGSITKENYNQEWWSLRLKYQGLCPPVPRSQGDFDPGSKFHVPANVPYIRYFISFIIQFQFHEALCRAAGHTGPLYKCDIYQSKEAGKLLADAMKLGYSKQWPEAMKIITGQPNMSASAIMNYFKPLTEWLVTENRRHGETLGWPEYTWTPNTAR
Excerpt: The IC50 values have been calculated by the regression analysis of the linear part of the log dose/percent inhibition curve.

[1] = system: blood pressure increases induced by angiotensin I; experiment: Antihypertensive activity i.v. in the anaesthetized ganglion-blocked rat (inhibition of blood pressure increases induced by repeated i.v. injections of angiotensin I); type: in vivo
Experimental: Dose-dependent antihypertensive activity of selected compounds was calculated after intravenous administration to the anaesthetized ganglion-blocked rat. […] Half-lives (t1/2) of the antihypertensive action were also calculated and reported.

[2] = system: pressure answer to angiotensin II; experiment: Influence on the pressure answer to angiotensin II; type: in vivo; conditions: up to the dose of 1 mg kg i.v.

Compound	IC50 (ACE) [nM]	further results
O=C(CNC(=O)[C@H]1CCCC[C@H]1C(=O)O)NO (relative stereo) [Example 1]	1600	
CN(CC(=O)NO)C(=O)[C@@H]1CCC[C@H]1C(=O)O (relative stereo) [Example 6, Trans-2[[N-[2-(hydroxyamino)-2-oxoethyl]-N-methylamino]carbonyl]cyclopentanecarboxylic acid]	730	
CC(=O)ON(C(C)=O)C(=O)CN(C)C(=O)[C@H]1CCCC[C@H]1C(=O)O (relative stereo) [Example 14, Cis-2-[[N-[2-(N'-acetoxy-N'-acetylamino)-2-oxoethyl]-N-methyl-amino]carbonyl]cyclohexanecarboxylic acid]	280	ED50 ([1]; iv, 1 min, angiotensin I-induced pressure increase, at time of maximum effect (1 min)): 1.5 mg/kg
O=C(NO)C(Cc1ccccc1)NC(=O)[C@H]1CCCC[C@H]1C(=O)O (relative stereo) [Example 18, Cis-2[[N-[1-benzyl-2-(hydroxyamino)-2-oxoethyl]amino]carbonyl]-cyclohexane carboxylic acid]	400	
O=C(NO)C(CCc1ccccc1)NC(=O)[C@H]1CCCC[C@H]1C(=O)O (relative stereo) [Example 19, Cis-2[[N-[1-(2-phenylethyl)-2-(hydroxyamino)-2-oxoethyl]amino]carbonyl]cyclohexanecarboxylic acid]	28000	
O=C(NO)C(CCCc1ccccc1)NC(=O)[C@H]1CCCC[C@H]1C(=O)O (relative stereo) [Example 20, Cis-2[[N-[1-(3-phenylpropyl)-2-(hydroxyamino)-2-oxoethyl]amino]carbonyl]-cyclohexanecarboxylic acid]	10000	
CN(C(=O)[C@@H]1CCCC[C@H]1C(=O)O)C(Cc1ccccc1)C(=O)NO (relative stereo) [Example 30, Trans-2[[N-[1-benzyl-2-(hydroxyamino)-2-oxoethyl]-N-methylamino]carbonyl]-cyclohexanecarboxylic acid]	30	
CN(C(=O)[C@H]1CCCC[C@H]1C(=O)O)C(CCCc1ccccc1)C(=O)NO (relative stereo) [Example 32, Cis-2[[N-[1-(3-phenylpropyl)-2-(hydroxyamino)-2-oxoethyl]-N-methylamino]carbonyl]-cyclohexanecarboxylic acid]	135	
O=C(NO)C(CNC(=O)[C@H]1CCCC[C@H]1C(=O)O)Cc1ccccc1 (stereo partly shown) [Example 3]	3500	
CN(C(=O)[C@H]1CCCC[C@H]1C(=O)O)C(CCc1ccccc1)C(=O)NO (stereo partly drawn) [Example 8, Cis-2[[N-[1-(2-phenylethyl)-2-(hydrxyamino)-2-oxoethyl]-N-methylamino]carbonyl]-cyclohexanecarboxylic acid]	62	

Continued, in another order:

IC50 (ACE) [nM]	Compound	further results
8	CCN(CC(=O)NO)C(=O)[C@@H]1CCCC[C@H]1C(=O)O (relative stereo) [Example 2, Trans-2[[N-[2-(hydroxyamino)-2-oxoethyl]-N-ethylamino]carbonyl]- -cyclohexanecarboxylic acid]	Antihypertensive activity t1/2 (half-life of the antihypertensive action) [1]: 14 min
6	CN(CC(=O)NO)C(=O)[C@H]1CCCC[C@H]1C(=O)O (relative stereo) [Example 4, cis-2[[N-[2-(hydroxyamino)-2-oxoethyl]-N-methylamino]carbonyl]-cyclohexanecarboxylic acid]	influence on the pressure answer to angiotensin II [2]: has not influenced; Antihypertensive activity t1/2 (half-life of the antihypertensive action) [1]: 15 min
20	CN(CC(=O)NO)C(=O)[C@@H]1CCCC[C@H]1C(=O)O (relative stereo) [Example 21, Trans-2-[[N-[2-(hydroxyamino)-2-oxoethyl]-N-methylamino]carbonyl]-cyclohexanecarboxylic acid]	Antihypertensive activity t1/2 (half-life of the antihypertensive action) [1]: 15 min
25	CCN(CC(=O)NO)C(=O)[C@H]1CCCC[C@H]1C(=O)O (relative stereo) [Example 26, Cis-2[[N-[2-(hydroxyamino)-2-oxoethyl]-N-ethylamino]carbonyl]cyclohexane-carboxylic acid]	
30	CN(C(=O)[C@H]1CCCC[C@H]1C(=O)O)C(Cc1ccccc1)C(=O)NO (relative stereo) [Example 29, Cis-2[[N-[1-benzyl-2-(hydroxyamino)-2-oxoethyl]-N-methylamino]carbonyl]-cyclohexanecarboxylic acid]	
7.6	CCN(CC(=O)NO)C(=O)[C@@H]1CCCC[C@H]1C(=O)O [Example 7, trans-(1R,2R)-2[[N-[2-(hydroxyamino)-2-oxoethyl]N-ethylamino]carbonyl]-cyclohexanecarboxylic acid]	
3.5	CN(CC(=O)NO)C(=O)[C@@H]1CCCC[C@@H]1C(=O)O [Example 9, Cis-(1S,2R)-2[[N-[2-(hydroxyamino)-2-oxoethyl]-N-methylamino]carbonyl]-cyclohexanecarboxylic acid]	

Source: patent US5095137A, “Amides of cyclomethylen-1,2-bicarboxylic acids having therapeutical activity” (Laboratori Guidotti SpA, priority 1988, dated 1992)
